Results taken from PubChem BioAssay AID296 (DTP/NCI, 2004).
Values joined by “and” are separate entries in the source; they are usually repeats but may differ in a detail not shown here. Equal entries are not always repeated. Results filed as inconclusive are left out.

Tested on: MX-1 breast xenograft, nude mice, tumor weight T/C
Experiment: NCI In Vivo Anticancer Drug Screen. Data for tumor model Human Mammary Carcinoma MX-1 Xenograft (intrarenal inoculation) in NU/NU Swiss (nude) mice
Conditions: endpoint: mean tumor weight change, higher = larger tumour
How it was run: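 Antitumour effect measured in vivo against vehicle controls, expressed as T/C.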

[1] = dose: 25.0 mg/kg/injection, schedule: Q01DX010 (sc), vehicle: saline with Tween-80
[2] = dose: 400.0 mg/kg/injection, schedule: Q01DX010 (sc), vehicle: saline with Tween-80
[3] = dose: 150.0 mg/kg/injection, schedule: Q04DX003 (sc), vehicle: Klucel (hydroxypropylcellulose) (HPC)
[4] = dose: 300.0 mg/kg/injection, schedule: Q04DX003 (sc), vehicle: Klucel (hydroxypropylcellulose) (HPC)
[5] = dose: 600.0 mg/kg/injection, schedule: Q04DX003 (sc), vehicle: Klucel (hydroxypropylcellulose) (HPC)
[6] = dose: 1200.0 mg/kg/injection, schedule: Q04DX003 (sc), vehicle: Klucel (hydroxypropylcellulose) (HPC)
[7] = dose: 18.75 mg/kg/injection, schedule: Q04DX003 (sc), vehicle: saline
[8] = dose: 100.0 mg/kg/injection, schedule: Q01DX010 (sc), vehicle: saline with Tween-80
[9] = dose: 2400.0 mg/kg/injection, schedule: Q04DX003 (sc), vehicle: Klucel (hydroxypropylcellulose) (HPC)
[10] = dose: 100.0 mg/kg/injection, schedule: Q04DX003 (sc), vehicle: saline with Tween-80
[11] = dose: 200.0 mg/kg/injection, schedule: Q04DX003 (sc), vehicle: saline with Tween-80

With CN1CCN(Cc2nc3cccc4c3c([n+]2[O-])-c2ccccc2-4)CC1 the T/C (dose: 12.5 mg/kg/injection, schedule: Q01DX010 (sc), vehicle: saline with Tween-80) was 72 % of control, the T/C [1] was 96 % of control and the T/C [2] was 35 % of control.

COc1cc(C(=O)c2cocc2C(=O)c2ccc3c(c2)OCO3)cc(OC)c1OC was tested, and the T/C [3] was 74 % of control, the T/C [4] was 52 % of control and the T/C [5] was 56 % of control. The T/C [6] was 44 % of control.

CC(CN1CC(=O)NC(=O)C1)N1CC(=O)NC(=O)C1 (stereo unspecified) was tested, and the T/C [3] was 92 % of control and the T/C [4] was 64 % of control.

In the case of N/C(=N\OC(=O)Nc1ccc(CSc2ccc(Cl)cc2)o1)c1ccccn1, the T/C (dose: 9.38 mg/kg/injection, schedule: Q04DX003 (sc), vehicle: saline) is reported as 62 % of control, the T/C [7] is reported as 66 % of control and the T/C (dose: 37.5 mg/kg/injection, schedule: Q04DX003 (sc), vehicle: saline) is reported as 40 % of control. For the same compound, the T/C [3] was 102 % of control and the T/C [4] was 97 % of control.

O=C(O)c1c2c(nc3ccccc13)Cc1ccccc1-2 was tested, and the T/C (dose: 25.0 mg/kg/injection, schedule: Q01DX010 (sc), vehicle: water) was 108 % of control and the T/C (dose: 200.0 mg/kg/injection, schedule: Q01DX010 (sc), vehicle: water) was 46 % of control.

For NC(=O)c1ncn2c(=O)n(CCCl)nnc12, the T/C (dose: 25.0 mg/kg/injection, schedule: Q04DX003 (sc), vehicle: suspension in saline) was 69 % of control and the T/C (dose: 50.0 mg/kg/injection, schedule: Q04DX003 (sc), vehicle: suspension in saline) was 30 % of control.

With C=C(C)[C@]12CC(C)C34OC(/C=C\C=C\CCCCCCCCC)(O[C@@H]1[C@@H]3[C@@H]1O[C@]1(CO)[C@@H](O)[C@]1(O)C(=O)C(C)=C[C@@H]41)O2 (stereo partly specified) the T/C (dose: 6.0 mg/kg/injection, schedule: Q04DX003 (sc), vehicle: distilled water + alcohol) was 102 % of control and the T/C (dose: 12.0 mg/kg/injection, schedule: Q04DX003 (sc), vehicle: distilled water + alcohol) was 95 % of control.

CCOC(=O)c1ccc(NC(=O)Nc2nccs2)cc1 was tested, and the T/C [1] was 100 % of control, the T/C [8] was 97 % of control and 108 % of control and the T/C (dose: 200.0 mg/kg/injection, schedule: Q01DX010 (sc), vehicle: saline with Tween-80) was 63 % of control. The T/C [2] was 186 % of control.

For OCCN1CCN(CC/C=C2/c3ccccc3Sc3ccc(C(F)(F)F)cc32)CC1, the T/C (dose: 30.0 mg/kg/injection, schedule: Q04DX003 (sc), vehicle: saline) was 65 % of control, the T/C (dose: 60.0 mg/kg/injection, schedule: Q04DX003 (sc), vehicle: saline) was 43 % of control and the T/C (dose: 120.0 mg/kg/injection, schedule: Q04DX003 (sc), vehicle: saline) was 29 % of control and 43 % of control. For the same compound, the T/C (dose: 240.0 mg/kg/injection, schedule: Q04DX003 (sc), vehicle: saline) was 17 % of control and 21 % of control.

CC(=O)O[C@H]1C(=O)[C@@]2(C)[C@H]([C@H](OC(=O)c3ccccc3)[C@]3(O)C[C@H](OC(=O)[C@H](O)[C@@H](NC(=O)c4ccccc4)c4ccccc4)C(C)=C1C3(C)C)[C@]1(OC(C)=O)CO[C@@H]1C[C@@H]2O was tested, and the T/C (dose: 2.5 mg/kg/injection, schedule: Q01DX010 (sc), vehicle: Klucel (hydroxypropylcellulose) (HPC)) was 83 % of control, the T/C (dose: 5.0 mg/kg/injection, schedule: Q01DX010 (sc), vehicle: Klucel (hydroxypropylcellulose) (HPC)) was 77 % of control and the T/C (dose: 10.0 mg/kg/injection, schedule: Q01DX010 (sc), vehicle: Klucel (hydroxypropylcellulose) (HPC)) was 46 % of control. For the same compound, the T/C (dose: 20.0 mg/kg/injection, schedule: Q01DX010 (sc), vehicle: Klucel (hydroxypropylcellulose) (HPC)) was 73 % of control, the T/C (dose: 40.0 mg/kg/injection, schedule: Q01DX010 (sc), vehicle: Klucel (hydroxypropylcellulose) (HPC)) was 48 % of control and the T/C (dose: 80.0 mg/kg/injection, schedule: Q01DX010 (sc), vehicle: Klucel (hydroxypropylcellulose) (HPC)) was 36 % of control. For the same compound, the T/C (dose: 400.0 mg/kg/injection, schedule: Q01DX010 (sc), vehicle: Klucel (hydroxypropylcellulose) (HPC)) was 6 % of control.

In the case of COC1/C=C\C=C(/C)C(=O)NC2=CC(=O)C=C(C2=O)C(OC)C(C)CC(OC)C(OC)C(C)/C=C(/C)C1OC(N)=O (stereo unspecified), the T/C (dose: 2.25 mg/kg/injection, schedule: Q04DX003 (sc), vehicle: Klucel (hydroxypropylcellulose) (HPC)) is reported as 77 % of control, the T/C (dose: 4.5 mg/kg/injection, schedule: Q04DX003 (sc), vehicle: Klucel (hydroxypropylcellulose) (HPC)) is reported as 63 % of control and the T/C (dose: 9.0 mg/kg/injection, schedule: Q04DX003 (sc), vehicle: Klucel (hydroxypropylcellulose) (HPC)) is reported as 52 % of control.

With N=C(N)CCCCCCCCC(=N)N the T/C [7] was 124 % of control.

With O=S(=O)(O)c1cc(N=C=S)ccc1/C=C/c1ccc(N=C=S)cc1S(=O)(=O)O the T/C (dose: 150.0 mg/kg/injection, schedule: Q04DX003 (ip), vehicle: saline) was 47 % of control.

In the case of [O-][n+]1c(CN2CCCCC2)nc2cccc3c2c1-c1ccccc1-3, the T/C [4] is reported as 94 % of control, the T/C [5] is reported as 102 % of control and the T/C [6] is reported as 105 % of control. The T/C [9] was 70 % of control.

For Nc1n[nH]c(N)n1, the T/C (dose: 200.0 mg/kg/injection, schedule: Q01DX010 (sc), vehicle: saline) was 92 % of control, the T/C (dose: 400.0 mg/kg/injection, schedule: Q01DX010 (sc), vehicle: saline) was 94 % of control and the T/C (dose: 800.0 mg/kg/injection, schedule: Q01DX010 (sc), vehicle: saline) was 111 % of control.

For NC(=S)N/N=C\c1ncccc1OCc1cccc(N)c1, the T/C (dose: 600.0 mg/kg/injection, schedule: Q04DX003 (sc), vehicle: saline with Tween-80) was 75 % of control and the T/C (dose: 1200.0 mg/kg/injection, schedule: Q04DX003 (sc), vehicle: saline with Tween-80) was 152 % of control.

CCOC(=O)CNC(=O)Sc1ccc(C(C)(C)C)cc1 was tested, and the T/C [4] was 123 % of control, the T/C [5] was 88 % of control and the T/C [6] was 81 % of control. The T/C [9] was 77 % of control.

Cc1ccc(S(=O)(=O)OCOS(=O)(=O)c2ccc(C)cc2)cc1 was tested, and the T/C [4] was 89 % of control, the T/C [5] was 98 % of control and the T/C [6] was 85 % of control. For the same compound, the T/C [9] was 63 % of control.

For COC1C(/C=C/C(C)=O)OC2OC(C)(C)OC21 (stereo unspecified), the T/C (dose: 75.0 mg/kg/injection, schedule: Q04DX003 (sc), vehicle: suspension in saline) was 97 % of control, the T/C (dose: 150.0 mg/kg/injection, schedule: Q04DX003 (sc), vehicle: suspension in saline) was 160 % of control and the T/C (dose: 600.0 mg/kg/injection, schedule: Q04DX003 (sc), vehicle: suspension in saline) was 82 % of control. For the same compound, the T/C (dose: 1200.0 mg/kg/injection, schedule: Q04DX003 (sc), vehicle: suspension in saline) was 63 % of control.

With NC(=O)CC(N)C(=O)O (stereo unspecified) the T/C (dose: 1600.0 mg/kg/injection, schedule: Q04DX003 (sc), vehicle: saline) was 88 % of control, the T/C (dose: 3200.0 mg/kg/injection, schedule: Q04DX003 (sc), vehicle: saline) was 68 % of control and the T/C (dose: 6400.0 mg/kg/injection, schedule: Q04DX003 (sc), vehicle: saline) was 90 % of control.

In the case of C=C(NC(=O)C(=C)NC(=O)c1csc(C2=NC3c4csc(n4)C4NC(=O)c5csc(n5)C(C(C)(O)C(C)O)NC(=O)C5CSC(=N5)/C(=C/C)NC(=O)C(C(C)O)NC(=O)c5csc(n5)C3(CC2)NC(=O)C(C)NC(=O)C(=C)NC(=O)C(=C)NC(=O)C(C(C)C)NC2C=Cc3c(C(C)O)cc(nc3C2O)C(=O)OC4C)n1)C(N)=O (stereo unspecified), the T/C (dose: 187.5 mg/kg/injection, schedule: Q04DX003 (sc), vehicle: suspension in saline) is reported as 123 % of control, the T/C (dose: 375.0 mg/kg/injection, schedule: Q04DX003 (sc), vehicle: suspension in saline) is reported as 98 % of control and the T/C (dose: 750.0 mg/kg/injection, schedule: Q04DX003 (sc), vehicle: suspension in saline) is reported as 105 % of control. For the same compound, the T/C (dose: 1500.0 mg/kg/injection, schedule: Q04DX003 (sc), vehicle: suspension in saline) was 152 % of control.

In the case of NC(=O)Oc1cccc(OC(N)=O)c1, the T/C (dose: 300.0 mg/kg/injection, schedule: Q04DX003 (sc), vehicle: water) is reported as 68 % of control, the T/C (dose: 600.0 mg/kg/injection, schedule: Q04DX003 (sc), vehicle: water) is reported as 101 % of control and the T/C (dose: 1200.0 mg/kg/injection, schedule: Q04DX003 (sc), vehicle: water) is reported as 53 % of control.

For Clc1ccc2nnnn2n1, the T/C [10] was 173 % of control and the T/C [11] was 95 % of control.

With O=C([O][Bi]([c]1ccccc1)[c]1ccccc1)c1ccccc1 the T/C (dose: 25.0 mg/kg/injection, schedule: Q04DX003 (ip), vehicle: Klucel (hydroxypropylcellulose) (HPC)) was 91 % of control, the T/C (dose: 50.0 mg/kg/injection, schedule: Q04DX003 (ip), vehicle: Klucel (hydroxypropylcellulose) (HPC)) was 78 % of control and the T/C (dose: 100.0 mg/kg/injection, schedule: Q04DX003 (ip), vehicle: Klucel (hydroxypropylcellulose) (HPC)) was 64 % of control.

O=C(O[Si](Cc1ccccc1)(Cc1ccccc1)Cc1ccccc1)N(CCCl)CCCl was tested, and the T/C [10] was 78 % of control and the T/C [11] was 29 % of control.

For O=Cc1ccc([N+](=O)[O-])s1, the T/C [1] was 90 % of control, the T/C (dose: 50.0 mg/kg/injection, schedule: Q01DX010 (sc), vehicle: saline with Tween-80) was 89 % of control and the T/C [8] was 56 % of control.
